Consider seven substances from patent publication US9863938B2, “Synthetic antibodies” (ARIZONA BOARD OF REGENTS, A BODY CORPORATE OF THE STATE OF …, priority 2006, dated 2018).

Series [1] deals with T1, human α-thrombin (Homo sapiens, UniProt P00734).
T1 construct: concentrations of human α-thrombin ranging from 0 to 100 nM
The series is described as follows: ELISA-type assay on wells coated with thrombin. Type of series: binding. As to conditions: read-out: Dissociation constant estimated. As to the method: Binding to thrombin was evaluated in an ELISA-type assay. Wells of a 96 well plate were coated with 100 μL of 30 μg/mL human α-thrombin and incubated at 4 C overnight. The plate was washed twice with DDI H2O and passivated with 3% BSA in IX PBS buffer for 1 hour. The plate was shaken out and 50 μL of varying concentrations of analyte (DNA tile synbody, DNA tile with each aptamer with the other not present, and each aptamer alone, respectively) were incubated at RT for 1 hour. DNA tiles were biotin-modified at the 5′ end of one of the distal DNA strands 346 (see FIG. 26(a)). The plate was rinsed 10 times in IXPBS and 50 μL of 1:1000 dilution of streptavidin-HRP in 0.1% BSA in IX PBS was pipetted and incubated for 1 hour at RT. The plate was again rinsed and 50 μL of TMB was added and incubated at RT for 15 minutes. 50 μL of 0.5M HCl was added and the plate was read immediately. Results are shown in FIG. 27 for the DNA tile synbody 350; the DNA tile with Apt1 (SEQ ID NO: 20) but not Apt2 (SEQ ID NO: 21) present 352; the DNA tile with Apt2 but not Apt1 (SEQ ID NO: 20) present 356; Apt1 (SEQ ID NO: 20) alone 354; and Apt2 (SEQ ID NO: 21) alone 358. Dissociation constant values estimated from this assay were about 1 nM for the DNA tile synbody, about 10 nM for Apt1 (SEQ ID NO: 20) alone, and more than 1 μM for Apt2 (SEQ ID NO: 21) alone.

The target of series [2] is T2, transferrin (Homo sapiens, UniProt P02787). The series is described as follows: SPR analysis of 1:1 polypeptide pairs for binding to distinct sites on immobilized target. As to conditions: SPR response of pair mixture versus single polypeptides. The source says:
The transferrin target was immobilized on a Biacore T100 SPR chip, and candidate polypeptides were applied in 1:1 mixtures in pairs and response data obtained, in accordance with the methods described in Example 4 above.

Series [3] addresses T2, transferrin. Briefly: SPR steady-state solution phase KD of candidate affinity elements, transferrin immobilized on Biacore T100 chip. Type of series: binding. As to the method:
Transferrin was immobilized by amine-coupling to the carboxyl-functionalized surface of a Biacore T100 CMS Dextran SPR chip as illustrated in FIG. 11. A 1:1 mixture of EDC (0.4M 1-ethyl-3-(3-dimethylaminopropyl)-carbodiimide in water) and NHS (0.1M N-hydroxysuccinimide in water) was applied 300 at a flow rate of 5 to 10 μl/min for a contact time of about 6 to 10 minutes to activate the surface by conjugating […] 306 to the surface-exposed carboxyl groups. Transferrin 25 μg/ml in immobilization buffer selected for correct pH was then applied 302 at a flow rate of 5 to 10 μl/min for a contact time of about 5 to 10 minutes, allowing the amine functionality on the transferrin 308 to displace the activated NHS ester and bond to the surface via an amide bond. Finally, ethylene diamine (1 M ethylene diamine-HCl at pH 8.5) was applied at a flow rate of 5 to 10 μl/min for a contact time of about 6 to 7 minutes to deactivate any remaining reactive groups on the dextran chip surface. Flow rates and contact times are adjusted as necessary to provide the surface concentration of target desired for the intended application, and may vary by target. In general, for evaluating whether binding occurs, it is preferable to immobilize a relatively large quantity of target, and higher flow rates and/or longer contact times may be used. For determining kinetics, it is preferable to limit the amount of target immobilized so as to minimize rebinding and avidity effects, and lower flow rates and/or contact times may be used.
Candidate affinity elements for the transferrin synbody TRF 19 (SEQ ID NO: 1), TRF21 (SEQ ID NO: 3), TRF23 (SEQ ID NO: 5), TRF24 (SEQ ID NO: 6), TRF25 (SEQ ID NO: 7), and TRF26 (SEQ ID NO: 8) were individually evaluated for solution phase KD with respect to transferrin by SPR analysis. Because the off rates for these polypeptides were very high, KD values were estimated by measuring steady-state response for at least five concentrations in a two-fold dilution series, each concentration tested in duplicate. For each experiment, response data were processed using a reference surface to correct for bulk refractive index changes and any nonspecific binding. Data were also double referenced using responses from blank running buffer injections. Each experiment was conducted at 25° C. using PBST (0.01M Phosphate Buffered Saline, 0.138M NaCl, 0.0027M KCl, 0.05% surfactant Tween20, pH 7.4) as the running buffer on a Biacore T100 instrument. Analytes were injected for 60 s at a flow rate of 30 μl/min. The antigen surfaces were regenerated with 30 s consecutive pulses of NaOH/NaCl (50 mM NaOH in IM NaCl) and Glycine (10 mM glycine —HCl, pH 2.5).

Series [4] has as its system 8,000 human proteins (GST fusion). The series is described as follows: Invitrogen Protoarray Human Protein Microarray (8,000 features), fluorescence intensity of bound ligand. Format: binding. As to the method: Two biotinylated anti-TRF synbodies (SYN23-26 and SYN 21-22) were applied to a protein microarray having 8,000 features (Invitrogen Protoarray Human Protein Microarray v. 4.0 for immune response biomarker profiling), each feature comprising a distinct human protein (GST fusion) adsorbed to a nitrocellulose coated slide. Application of the synbodies to the microarray was performed in accordance with manufacturer instructions: (see ProtoArray Human Protein Microarray, Invitrogen, Catalog no. PAH052401, Version B, 15 Dec. 2006, 25-0970, Users Manual.) After blocking the array with 1% BSA/PBS/0.1% Tween for 1 hour at 4 C with gentle shaking, 120 μl of probing buffer (1×PBS, 5 mM mgCl2, 0.5 mM DTT, 0.05% Triton X-100, 5% glycerol, 1% BSA) with synbody was applied to the array. The prescribed cover slip was placed over the array and adjusted to remove air bubbles. The array was incubated in a 50 ml conical tube, printed side up, for 1.5 hours at 4 C without shaking The array was then removed from the conical tube inserted diagonally into the array chamber, kept on ice. 8 ml probing buffer was added to the chamber wall. The cover slip was removed and the array was incubated in probing buffer for 1 minute on ice. […] The array was dried in the dark for 60 minutes at room temperature, after which it was scanned using a fluorescent microarray scanner and data was taken and analyzed.

Where [5] appears, read: restates Table 3, read-out: solution phase affinities for transferrin, range of KD.
[6] abbreviates: estimated from steady-state SPR response, 25° C., PBST pH 7.4, read-out: Solution Phase KD.

Where two headings read alike, the source gives them in different places. Bridge positions count the residues as written; N and C are the ends. Ends that are not written are not given here. I, II: the chains in the order shown.

T2 sequence (P02787 20-698, species assumed): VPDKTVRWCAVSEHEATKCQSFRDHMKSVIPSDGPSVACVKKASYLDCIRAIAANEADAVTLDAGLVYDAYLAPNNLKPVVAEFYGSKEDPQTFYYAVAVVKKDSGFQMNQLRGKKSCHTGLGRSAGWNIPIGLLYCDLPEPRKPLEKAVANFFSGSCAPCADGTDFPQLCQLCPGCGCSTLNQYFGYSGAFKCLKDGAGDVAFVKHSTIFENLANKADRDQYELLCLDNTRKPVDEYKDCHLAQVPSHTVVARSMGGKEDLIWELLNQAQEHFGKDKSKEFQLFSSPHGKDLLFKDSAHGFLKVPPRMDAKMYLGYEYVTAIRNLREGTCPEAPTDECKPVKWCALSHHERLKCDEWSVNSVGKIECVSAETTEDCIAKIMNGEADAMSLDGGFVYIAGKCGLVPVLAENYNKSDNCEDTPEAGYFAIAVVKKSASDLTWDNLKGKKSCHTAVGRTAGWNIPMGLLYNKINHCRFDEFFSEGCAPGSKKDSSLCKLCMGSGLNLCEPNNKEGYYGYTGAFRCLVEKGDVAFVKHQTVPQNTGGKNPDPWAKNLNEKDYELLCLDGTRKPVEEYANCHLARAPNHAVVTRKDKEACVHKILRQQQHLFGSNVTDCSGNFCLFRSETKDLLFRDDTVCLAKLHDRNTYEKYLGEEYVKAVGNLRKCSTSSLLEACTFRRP

Take “5′-AGTCCGTGGTAGGGCAGGTTGGGGTGACT-3′ [Apt1]”: the Kd in series [1] is roughly 0.01 µM.

Take 5′-GGTTGGTGTGGTTGG-3′ [Apt2]: in series [1], the Kd is greater than 1 µM.

Take AHKVVPQRQIRHAYNRYGSC [TRF26]: the “binding to distinct sites on target” value in series [2] was “bind distinct sites on transferrin”. For the same substance, the Kd in series [3] (setting [5]) lay in the range of 50 to 100 µM.

In the case of APYAPQQIHYWSTLGFKGSC [TRF25], the Kd in series [3] (setting [6]) is roughly 60 µM.

FRGWAHIFFGPHVIYRGGSC [TRF23]: the “binding to distinct sites on target” value in series [2] was “bind distinct sites on transferrin”. Further, the Kd is roughly 50 µM in series [3] (setting [6]) and 50 to 100 µM in series [3] (setting [5]).

For “I: H-FRGWAHIFFGPHVIYRGGSGKC / II: H-AHKVVPQRQIRHAYNRYGSG (amide I:21-II:C) [SYN23-26]”, in series [4], the “highest affinity target from library of 8,000” value was “PCCA” and the “targets bound with intensities higher than that of 1C10 for TRF” value is “seven targets”.

Turning to QYHHFMNLKRQGRAQAYGSC [TRF21], the Kd in series [3] (setting [6]) is roughly 60 µM.
